The results in this text go back to patent publication US8034939B2, “Isoindole derivatives, compositions containing same, preparation thereof and pharmaceutical uses thereof in particular as inhibitors of chaperone protein Hsp90 activities” (Aventis Pharma S.A.., priority 2005, dated 2011).

The experiment deals with Hsp82 (Saccharomyces cerevisiae, UniProt P02829). Briefly: Hsp82 ATPase activity, PK/LDH coupled enzymatic assay (also malachite green method). The experiment is classed as biochemical. To be noted: 1 μM Hsp82, 250 μM ATP, 37° C. Here is the method: The […] released during the hydrolysis of ATP by the ATPase activity of Hsp82 is quantified by the malachite green method. In the presence of this reagent, formation of the inorganic phosphate-molybdate-malachite green complex occurs, which complex absorbs at a wavelength of 620 nm. The products to be evaluated are incubated in a reaction volume of 30 μl, in the presence of 1 μM Hsp82 and of […] of substrate (ATP) in a buffer composed of 50 mM Hepes-NaOH (pH 7.5), 1 mM DTT, 5 mM MgCl2 and 50 mM KCl at 37° C. for 60 minutes. In parallel, a range of inorganic phosphate between 1 and 40 μM is prepared in the same buffer. […] After incubation at ambient temperature for 20 minutes, the absorbance of the various wells is measured using a microplate reader at 620 nm. The concentration of […] of each sample is then calculated from the standard curve. The ATPase activity of Hsp82 is expressed as concentration of inorganic phosphate produced in 60 minutes. The effect of the various products tested is expressed as percentage inhibition of the ATPase activity. […]
The products tested are incubated in a reaction volume of 100 μl of buffer composed of 100 mM Hepes-NaOH (pH 7.5), 5 mM MgCl2, 1 mM DTT, 150 mM KCl, 0.3 mM NADH, 2.5 mM PEP and 250 μM ATP. […] The enzymatic activity of Hsp82 is then measured, continuously, in a microplate reader, at 37° C., at the wavelength of 340 nm. […]

pIC50: −log10 of the molar value.

Chain of Hsp82 (P02829 whole entry): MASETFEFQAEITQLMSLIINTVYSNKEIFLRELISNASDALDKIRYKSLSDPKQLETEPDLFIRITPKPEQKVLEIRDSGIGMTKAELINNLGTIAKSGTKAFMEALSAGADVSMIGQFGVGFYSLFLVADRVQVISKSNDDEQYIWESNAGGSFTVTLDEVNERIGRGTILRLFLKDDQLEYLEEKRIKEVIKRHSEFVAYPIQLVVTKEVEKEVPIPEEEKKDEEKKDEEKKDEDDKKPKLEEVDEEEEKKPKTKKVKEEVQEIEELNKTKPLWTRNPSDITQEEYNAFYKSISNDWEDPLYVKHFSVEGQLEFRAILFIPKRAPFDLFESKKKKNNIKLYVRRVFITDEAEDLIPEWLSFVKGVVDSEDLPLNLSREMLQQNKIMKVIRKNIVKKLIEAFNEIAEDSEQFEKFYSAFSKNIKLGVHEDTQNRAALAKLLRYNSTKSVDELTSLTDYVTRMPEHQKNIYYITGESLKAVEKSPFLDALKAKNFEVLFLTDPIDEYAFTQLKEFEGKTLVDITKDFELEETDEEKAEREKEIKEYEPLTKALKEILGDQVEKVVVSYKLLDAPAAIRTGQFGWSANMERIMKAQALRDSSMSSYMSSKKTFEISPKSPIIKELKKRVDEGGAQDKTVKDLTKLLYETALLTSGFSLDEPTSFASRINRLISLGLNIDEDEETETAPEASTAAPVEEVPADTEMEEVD

Turning to `O=C1c2ccccc2C2=C(c3nc4ccc(O)cc4[nH]3)CCCN12` [Example 2, 1-{1-H-6-hydroxybenzimidazol-2-yl}-3,4-dihydro-2H-pyrido[2,1-a]isoindole-6-one], the negative-log IC50 (pIC50) (in general, the negative decadic logarithm of the IC50, by convention in mol/L) is 4.00 to 5.00.

`O=C1c2ccccc2C2=C(c3nc4ccncc4[nH]3)CCCN12` [Example 1, 1-{3-H-imidazo[4,5-c]pyridin-2-yl}-3,4-dihydro-2H-pyrido[2,1-a]-isoindole-6-one]: the pIC50 is 5.00 to 6.00.
